Assays:
[1] = system: Klebsiella pneumoniae; experiment: Antibacterial activity against Klebsiella pneumoniae BAA2470 expressing blaNDM-1 clinical isolates assessed as meropenem MIC incubated for 16 to 18 hrs by broth microdilution method; assay type: functional; settings: time 16-18 hrs; also: test concentration or dose not given here
[2] = Inhibition of recombinant his tagged IMP1 (unknown origin) expressed in Escherichia coli (DE3) cells using FC5 as substrate by microplate reader assay
[3] = system: Enterobacterales; experiment: Antibacterial activity against Carbapenem-Resistant Enterobacterales 19 expressing blaNDM-1 clinical isolates assessed as fold potentiation incubated for 16 to 18 hrs by broth microdilution method; assay type: functional; settings: time 16-18 hrs; also: test concentration or dose not given here
[4] = system: Escherichia coli; experiment: Antibacterial activity against Escherichia coli BAA2452 expressing blaNDM-1 clinical isolates assessed as fold potentiation incubated for 16 to 18 hrs by broth microdilution method; assay type: functional; settings: time 16-18 hrs; also: test concentration or dose not given here
[5] = Inhibition of recombinant NDM1 (unknown origin) expressed in Escherichia coli (DE3) cells using FC5 as substrate by microplate reader assay
[6] = Inhibition of recombinant VIM-5 (unknown origin) expressed in Escherichia coli (DE3) cells using FC5 as substrate by microplate reader assay
[7] = Inhibition of recombinant VIM-1 (unknown origin) expressed in Escherichia coli (DE3) cells using FC5 as substrate by microplate reader assay
[8] = system: Escherichia coli; experiment: Antibacterial activity against Escherichia coli C1580 expressing blaIMP-1 clinical isolates assessed as fold potentiation incubated for 16 to 18 hrs by broth microdilution method; assay type: functional; settings: time 16-18 hrs; also: test concentration or dose not given here
[9] = system: Escherichia coli; experiment: Antibacterial activity against Escherichia coli C1541 expressing blaVIM-2 clinical isolates assessed as meropenem MIC incubated for 16 to 18 hrs by broth microdilution method; assay type: functional; settings: time 16-18 hrs; also: test concentration or dose not given here
[10] = system: Klebsiella pneumoniae; experiment: Antibacterial activity against Klebsiella pneumoniae BAA2470 expressing blaNDM-1 clinical isolates assessed as fold potentiation incubated for 16 to 18 hrs by broth microdilution method; assay type: functional; settings: time 16-18 hrs; also: test concentration or dose not given here
[11] = system: Escherichia coli; experiment: Antibacterial activity against Escherichia coli C1541 expressing blaVIM-2 clinical isolates assessed as fold potentiation incubated for 16 to 18 hrs by broth microdilution method; assay type: functional; settings: time 16-18 hrs; also: test concentration or dose not given here
[12] = system: Escherichia coli; experiment: Antibacterial activity against Escherichia coli BAA2452 expressing blaNDM-1 clinical isolates assessed as meropenem MIC incubated for 16 to 18 hrs by broth microdilution method; assay type: functional; settings: time 16-18 hrs; also: test concentration or dose not given here
[13] = system: Escherichia coli; experiment: Antibacterial activity against Escherichia coli C1580 expressing blaIMP-1 clinical isolates assessed as meropenem MIC incubated for 16 to 18 hrs by broth microdilution method; assay type: functional; settings: time 16-18 hrs; also: test concentration or dose not given here
[14] = system: Enterobacterales; experiment: Antibacterial activity against Carbapenem-Resistant Enterobacterales 19 expressing blaNDM-1 clinical isolates assessed as meropenem MIC incubated for 16 to 18 hrs by broth microdilution method; assay type: functional; settings: time 16-18 hrs; also: test concentration or dose not given here
[15] = Inhibition of recombinant his tagged VIM-2 (unknown origin) expressed in Escherichia coli (DE3) cells using FC5 as substrate by microplate reader assay

SMILES	MIC [1] [µg/mL]	IC50 [2] [nM]	fold change (FC) [3]	fold change (FC) [4]	IC50 [5] [nM]	IC50 [6] [nM]	IC50 [7] [nM]	fold change (FC) [8]	MIC [9] [µg/mL]	fold change (FC) [10]	fold change (FC) [11]	MIC [12] [µg/mL]	MIC [13] [µg/mL]	MIC [14] [µg/mL]	IC50 [15] [nM]
CCCc1ccc(C(c2cccc(-n3cc(-c4cccc(N)c4)nn3)c2)P(=O)(O)O)cc1 (stereo not given)	64	190	8	8	460	0.56	530	16	2	>2	8	16	2	8	14
COc1ccc(C(c2cccc(-n3cc(-c4cccc(N)c4)nn3)c2)P(=O)(O)O)cc1 (stereo not given)	64	3250	8	8	8090	25	1240	32	2	>2	8	16	1	8	52
Cc1ccc(C(c2cccc(-n3cc(-c4cccc(N)c4)nn3)c2)P(=O)(O)O)cc1 (stereo not given)	64	27	8	16	1070	1	620	32	1	>2	16	8	1	8	0.82
CC(C)(C)c1ccc(C(c2cccc(-n3cc(-c4cccc(N)c4)nn3)c2)P(=O)(O)O)cc1 (stereo not given)	64	1370	8	8	180	1	710	16	2	>2	8	16	2	8	9
CCc1ccc(C(c2cccc(-n3cc(-c4cccc(N)c4)nn3)c2)P(=O)(O)O)cc1 (stereo not given)	64	170	8	16	650	7	1370	8	1	>2	16	8	4	8	6
Nc1cccc(-c2cn(-c3cccc(C(c4ccc(-c5ccccc5)cc4)P(=O)(O)O)c3)nn2)c1 (stereo not given)	64	150	8	8	180	2	350	16	2	>2	8	16	2	8	0.43
Nc1cccc(-c2cn(-c3cccc(C(c4ccc(-c5ccc(Br)cc5)cc4)P(=O)(O)O)c3)nn2)c1 (stereo not given)	64	12000	8	16	4900	2	1710	32	2	>2	8	8	1	8	8
CSc1ccc(C(c2cccc(-n3cc(-c4cccc(N)c4)nn3)c2)P(=O)(O)O)cc1 (stereo not given)	64	110	8	8	500	0.12	640	16	1	>2	16	16	2	8	1
Nc1cccc(-c2cn(-c3cccc(C(c4cccc5ccccc45)P(=O)(O)O)c3)nn2)c1 (stereo not given)	64	37	16	8	920	0.29	130	64	1	>2	16	16	0.5	4	6
N#Cc1ccc(C(c2cccc(-n3cc(-c4cccc(N)c4)nn3)c2)P(=O)(O)O)cc1 (stereo not given)	64	110	8	8	1120	3	270	16	2	>2	8	16	2	8	52
CCCCc1ccc(C(c2cccc(-n3cc(-c4cccc(N)c4)nn3)c2)P(=O)(O)O)cc1 (stereo not given)	64	295	8	16	150	1	460	32	2	>2	8	8	1	8	15

From ChEMBL document CHEMBL5620345, “Metal binding pharmacophore click-derived discovery of new broad-spectrum metallo-β-lactamase inhibitors” (Eur J Med Chem, 2023)
